Laboratory results published in patent publication US6479435B1, “Diaryl ethers and processes for their preparation and herbicidal and desiccant compositions containing them” (ISK Americas Incorporated, priority 1997, dated 2002).

Assays:
Format in all cases: in vivo
[1] = test system: soybean (Glycine max L., var. Pella 86, SOY); assay: Pre-emerge greenhouse test, crop damage rating; set-up: key to SOY crop damage rating: 0 = no damage, 100 = complete death of all plants; settings: 14 days after application, rating scale 0-100
Summary of the method: (§1)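 Visual 0–100 injury rating (100 = all plants dead) taken 14 days after treatment. Rates of 125–1000 g ai/ha in acetone, 187 l/ha, were sprayed onto soil one day post-sowing; pots were surface-watered to incorporate, then bottom-watered.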

[2] = test system: field corn (Zea mays L., var. Dekalb 535, CORN); assay: Pre-emerge greenhouse test, crop damage rating; settings: 14 days after application, rating scale 0-100
Summary of the method: as §1

[3] = test system: upland rice (Oryza sp., var.Tebonnet, RICE); assay: Pre-emerge greenhouse test, crop damage rating; settings: 14 days after application, rating scale 0-100
Summary of the method: as §1

[4] = test system: ivyleaf morningglory (Ipomoea hederacea, IPOHE); assay: Post-emerge greenhouse herbicide test, phytotoxicity rating; settings: 14 days after application, scale 0-100
Summary of the method: (§2)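 Scores use a 0 (no damage) to 100 (complete kill) scale, taken 14 days after a foliar spray. Acetone solutions with 0.25% v/v non-ionic surfactant were applied by track sprayer at 187 l/ha and 63-1000 g ai/ha to bottom-watered 2-3 leaf plants.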

[5] = test system: velvetleaf (Abutilon theophrasti, ABUTH); assay: as above; settings: 14 days after application, scale 0-100
Summary of the method: as §2

[6] = test system: redroot pigweed (Amaranthus retroflexus, AMARE); assay: as above; settings: 14 days after application, scale 0-100
Summary of the method: as §2

[7] = test system: lambsquarters (Chenopodium album, CHEAL); assay: as above; settings: 14 days after application, scale 0-100
Summary of the method: as §2

[8] = test system: large crabgrass (Digitaria sanguinalis, DIGSA); assay: as above; settings: 14 days after application, scale 0-100
Summary of the method: as §2

[9] = test system: Johnsongrass (Sorghum halepense, SORHA); assay: as above; settings: 14 days after application, scale 0-100
Summary of the method: as §2

[10] = test system: sicklepod (Cassia obtusifolia, CASOB); assay: as above; settings: 14 days after application, scale 0-100
Summary of the method: as §2

[11] = test system: barnyardgrass (Echinochloa crusgalli, ECHCG); assay: as above; settings: 14 days after application, scale 0-100
Summary of the method: as §2

[12] = test system: green foxtail (Setaria viridis, SETVI); assay: as above; settings: 14 days after application, scale 0-100
Summary of the method: as §2

[13] = test system: ivyleaf morningglory (Ipomoea hederacea, IPOHE); assay: Pre-emerge greenhouse herbicide test, phytotoxicity rating; settings: 14 days after application, rating scale 0-100
Summary of the method: as §1

[14] = test system: velvetleaf (Abutilon theophrasti, ABUTH); assay: as above; settings: 14 days after application, rating scale 0-100
Summary of the method: as §1

[15] = test system: redroot pigweed (Amaranthus retroflexus, AMARE); assay: as above; settings: 14 days after application, rating scale 0-100
Summary of the method: as §1

[16] = test system: lambsquarters (Chenopodium album, CHEAL); assay: as above; settings: 14 days after application, rating scale 0-100
Summary of the method: as §1

[17] = test system: large crabgrass (Digitaria sanguinalis, DIGSA); assay: as above; settings: 14 days after application, rating scale 0-100
Summary of the method: as §1

[18] = test system: Johnsongrass (Sorghum halepense, SORHA); assay: as above; settings: 14 days after application, rating scale 0-100
Summary of the method: as §1

[19] = test system: sicklepod (Cassia obtusifolia, CASOB); assay: as above; settings: 14 days after application, rating scale 0-100
Summary of the method: as §1

[20] = test system: barnyardgrass (Echinochloa crusgalli, ECHCG); assay: as above; settings: 14 days after application, rating scale 0-100
Summary of the method: as §1

[21] = test system: common ragweed (Ambrosia artemisiifolia L., AMBEL); assay: as above; settings: 14 days after application, rating scale 0-100
Summary of the method: as §1

[22] = test system: green foxtail (Setaria viridis, SETVI); assay: as above; settings: 14 days after application, rating scale 0-100
Summary of the method: as §1

[23] = test system: soybean (Glycine max L., var. Pella 86, SOY); assay: Post-emerge greenhouse test, crop damage rating; set-up: key to crop damage rating SOY: 0-100 scale: 0 = no damage, 100 = complete death of all plants; settings: 14 days after application, scale 0-100
Summary of the method: as §2

[24] = test system: common ragweed (Ambrosia artemisiifolia L., AMBEL); assay: Post-emerge greenhouse herbicide test, phytotoxicity rating; settings: 14 days after application, scale 0-100
Summary of the method: as §2

[25] = test system: field corn (Zea mays L., var. Dekalb 535, CORN); assay: Post-emerge greenhouse test, crop damage rating; settings: 14 days after application, scale 0-100
Summary of the method: as §2

[26] = test system: upland rice (Oryza sp., var.Tebonnet, RICE); assay: Post-emerge greenhouse test, crop damage rating; settings: 14 days after application, scale 0-100
Summary of the method: as §2

Question: What does the source list for `Nc1cccnc1Oc1cc(-n2c(=O)n3n(c2=S)CCCC3)c(F)cc1Cl` [Compound 8-42]?
Answer: SOY crop damage rating ([1]; Rate 125 g al/ha): 0; SOY crop damage rating ([1]; Rate 250 g al/ha): 20; CORN crop damage rating ([2]; Rate 125 g al/ha): 0; CORN crop damage rating ([2]; Rate 250 g al/ha): 0; RICE crop damage rating ([3]; Rate 125 g al/ha): 0; RICE crop damage rating ([3]; Rate 250 g al/ha): 0; phytotoxicity rating IPOHE ([4]; rate 63 g ai/ha): 60; phytotoxicity rating IPOHE ([4]; rate 250 g ai/ha): 70; phytotoxicity rating ABUTH ([5]; rate 63 g ai/ha): 100; phytotoxicity rating ABUTH ([5]; rate 250 g ai/ha): 100; phytotoxicity rating AMARE ([6]; rate 63 g ai/ha): 50; phytotoxicity rating AMARE ([6]; rate 250 g ai/ha): 95; phytotoxicity rating CHEAL ([7]; rate 63 g ai/ha): 50; phytotoxicity rating CHEAL ([7]; rate 250 g ai/ha): 80; phytotoxicity rating DIGSA ([8]; rate 63 g ai/ha): 0; phytotoxicity rating DIGSA ([8]; rate 250 g ai/ha): 0; phytotoxicity rating SORHA ([9]; rate 63 g ai/ha): 0; phytotoxicity rating SORHA ([9]; rate 250 g ai/ha): 0; phytotoxicity rating CASOB ([10]; rate 63 g ai/ha): 0; phytotoxicity rating CASOB ([10]; rate 250 g ai/ha): 0; phytotoxicity rating ECHCG ([11]; rate 63 g ai/ha): 0; phytotoxicity rating ECHCG ([11]; rate 250 g ai/ha): 0; phytotoxicity rating SETVI ([12]; rate 63 g ai/ha): 0; phytotoxicity rating SETVI ([12]; rate 250 g ai/ha): 0; IPOHE phytotoxicity rating ([13]; Rate 125 g al/ha): 30; IPOHE phytotoxicity rating ([13]; Rate 250 g al/ha): 50; ABUTH phytotoxicity rating ([14]; Rate 125 g al/ha): 100; ABUTH phytotoxicity rating ([14]; Rate 250 g al/ha): 100; AMARE phytotoxicity rating ([15]; Rate 125 g al/ha): 100; AMARE phytotoxicity rating ([15]; Rate 250 g al/ha): 100; CHEAL phytotoxicity rating ([16]; Rate 125 g al/ha): 80; CHEAL phytotoxicity rating ([16]; Rate 250 g al/ha): 100; DIGSA phytotoxicity rating ([17]; Rate 125 g al/ha): 0; DIGSA phytotoxicity rating ([17]; Rate 250 g al/ha): 0; SORHA phytotoxicity rating ([18]; Rate 125 g al/ha): 0; SORHA phytotoxicity rating ([18]; Rate 250 g al/ha): 0i; CASOB phytotoxicity rating ([19]; Rate 125 g al/ha): 100; CASOB phytotoxicity rating ([19]; Rate 250 g al/ha): 80; ECHCG phytotoxicity rating ([20]; Rate 125 g al/ha): 0; ECHCG phytotoxicity rating ([20]; Rate 250 g al/ha): 0; AMBEL phytotoxicity rating ([21]; Rate 125 g al/ha): 0; AMBEL phytotoxicity rating ([21]; Rate 250 g al/ha): 30; SETVI phytotoxicity rating ([22]; Rate 125 g al/ha): 0; SETVI phytotoxicity rating ([22]; Rate 250 g al/ha): 0; crop damage rating SOY ([23]; rate 63 g ai/ha): 20; crop damage rating SOY ([23]; rate 250 g ai/ha): 60; phytotoxicity rating AMBEL ([24]; rate 63 g ai/ha): 40; phytotoxicity rating AMBEL ([24]; rate 250 g ai/ha): 90; crop damage rating CORN ([25]; rate 63 g ai/ha): 0; crop damage rating CORN ([25]; rate 250 g ai/ha): 0; crop damage rating RICE ([26]; rate 63 g ai/ha): 0; crop damage rating RICE ([26]; rate 250 g ai/ha): 0
